Test systems include MDA-N; CCRF-CEM; COLO 205; NCI-H460; SK-OV-3; SF-539; Malme-3M; OVCAR-5; EKVX; MOLT-4; OVCAR-3; OVCAR-4; 786-0; RXF 393; CAKI-1; HOP-92; KM12; HCT-15; NCI-H226; HL-60.
Assay in all cases: growth of human tumour cells (NCI), 48 h

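Briefly, cells in 96-well plates were exposed to five compound concentrations for 48 h, and endpoints were estimated by linear interpolation. Here, GI50 denotes the concentration required for 50% inhibition of growth.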 The source made the active and inactive calls. No stated cut-off is given here; in the data, active = GI50 up to about 1.1 µM and inactive = higher.

With `COC(=O)C1=C(C)N2[C@H](C(=O)O)CO[C@@]2(C)[C@H](C(=O)OC)[C@H]1c1cccc([N+](=O)[O-])c1`, the GI50 with MDA-N, with CCRF-CEM, in the assay on COLO 205, in the assay on NCI-H460, in the assay on SK-OV-3 and with SF-539 was > 100 µM (inactive) throughout. In addition, the GI50 in the assay on Malme-3M, with OVCAR-5, in the assay on EKVX, in the assay on MOLT-4, with OVCAR-3 and with OVCAR-4 was > 100 µM (inactive) in each case. Also, the GI50 in the assay with 786-0 is > 100 µM (inactive); in the assay with RXF 393, > 100 µM (inactive); in the assay on CAKI-1, > 100 µM (inactive); in the assay on HOP-92, > 100 µM (inactive); in the assay with KM12, > 100 µM (inactive); with HCT-15, greater than 100 µM. Also, the GI50 with NCI-H226 is > 100 µM (inactive).

For the compound `CC(NC(=O)NC(C)(C)C)NC(=O)C(N)CC(=O)O` (configuration not stated), the GI50 in the assay on MDA-N was > 100 µM (inactive); with CCRF-CEM it was > 100 µM (inactive); in the assay on COLO 205 it was > 100 µM (inactive); in the assay on NCI-H460, > 100 µM (inactive); in the assay with SK-OV-3 it was 15.8 µM (inactive); in the assay on SF-539 it was > 100 µM (inactive). For the same compound, the GI50 with Malme-3M, in the assay with OVCAR-5, with EKVX, with MOLT-4, in the assay with OVCAR-3 and in the assay on OVCAR-4 was > 100 µM (inactive) throughout. Further, the GI50 in the assay on 786-0 is > 100 µM (inactive); with RXF 393, > 100 µM (inactive); with CAKI-1, > 100 µM (inactive); with HOP-92 it was > 100 µM (inactive); with KM12, > 100 µM (inactive); in the assay with HCT-15, greater than 100 µM. Also, in the assay on NCI-H226, the GI50 is > 100 µM (inactive).

With `Cc1cc(-c2nc3cc(F)c(F)cc3s2)ccc1N`, the GI50 in the assay on MDA-N was > 56.6 µM (inactive); in the assay on CCRF-CEM, > 35.6 µM (inactive); in the assay on COLO 205, 23.7 µM (inactive); in the assay on NCI-H460, > 100 µM (inactive); with SK-OV-3, > 64 µM (inactive); in the assay with Malme-3M, > 100 µM (inactive). For the same compound, the GI50 in the assay with OVCAR-5 is > 53.8 µM (inactive); with EKVX, > 79.8 µM (inactive); in the assay with MOLT-4, > 49.9 µM (inactive); in the assay on HL-60, > 41.6 µM (inactive); in the assay with OVCAR-3, > 50.5 µM (inactive); in the assay on OVCAR-4, 60.7 µM (inactive). In addition, the GI50 in the assay with 786-0 is > 65.2 µM (inactive); in the assay on RXF 393, 58.3 µM (inactive); in the assay on CAKI-1, > 45 µM (inactive); in the assay on HOP-92, > 100 µM (inactive); in the assay on KM12, > 69.2 µM (inactive); in the assay with HCT-15 it was greater than 61.4 µM.

Regarding `Cc1cc(NC(=O)C(=O)Cc2nc3ccccc3s2)ccc1Cl`, the GI50 with MDA-N, in the assay on CCRF-CEM, in the assay on COLO 205, in the assay with NCI-H460, with SK-OV-3 and with SF-539 was > 100 µM (inactive) throughout. For the same compound, the GI50 in the assay on Malme-3M, in the assay with OVCAR-5, with EKVX, with MOLT-4, in the assay with OVCAR-3 and in the assay with OVCAR-4 was > 100 µM (inactive) each time. Also, the GI50 was > 100 µM (inactive) in the assay on 786-0; > 100 µM (inactive) in the assay with RXF 393; > 100 µM (inactive) in the assay with CAKI-1; > 100 µM (inactive) in the assay with HOP-92; > 100 µM (inactive) in the assay on KM12; greater than 100 µM with HCT-15. The GI50 in the assay with NCI-H226 was > 100 µM (inactive).

Take `C[n+]1c2ccccc2c(C(=O)Nc2ccc(S(=O)(=O)N=C(N)N)cc2)c2ccccc21`: the GI50 with MDA-N, in the assay with COLO 205, with NCI-H460, with SK-OV-3, in the assay with SF-539 and in the assay on Malme-3M was > 100 µM (inactive) each time. Also, the GI50 with OVCAR-5 is > 100 µM (inactive); in the assay with EKVX, > 100 µM (inactive); in the assay on MOLT-4 it was 25.5 µM (inactive); in the assay on OVCAR-3, > 100 µM (inactive); with OVCAR-4, > 100 µM (inactive); in the assay with 786-0, > 100 µM (inactive). For the same compound, the GI50 in the assay on CAKI-1 was > 100 µM (inactive); in the assay on KM12, > 100 µM (inactive); in the assay on HCT-15, greater than 100 µM; in the assay on NCI-H226 it was > 100 µM (inactive).

`CC(=O)CCC[C@H](C)[C@@H](O)[C@@H]1O[C@H]([C@@]2(C)CCC(=O)O2)C[C@H]1C(=O)O`: the GI50 with MDA-N, in the assay on CCRF-CEM, in the assay on COLO 205, in the assay on NCI-H460, with SK-OV-3 and in the assay on SF-539 was > 100 µM (inactive) in each case. Moreover, the GI50 in the assay on OVCAR-5, in the assay with EKVX, with MOLT-4, in the assay on OVCAR-3, in the assay on OVCAR-4 and with 786-0 was > 100 µM (inactive) in each case. Moreover, the GI50 in the assay with RXF 393 is > 100 µM (inactive); with CAKI-1, > 100 µM (inactive); in the assay with KM12, > 100 µM (inactive); in the assay with HCT-15 it was greater than 100 µM; in the assay on NCI-H226, > 100 µM (inactive).

With `CC(C)c1cc2c(c(O)c1O)[C@@]1(C(=O)O)CCCC(C)(C)[C@@H]1CC2` [CARNOSIC ACID], the GI50 in the assay on MDA-N is 32.4 µM (inactive); in the assay on CCRF-CEM, 3.18 µM (inactive); in the assay with COLO 205, 24.2 µM (inactive); in the assay on NCI-H460, 19.9 µM (inactive); in the assay with SK-OV-3, 37.3 µM (inactive); in the assay on SF-539, 18.7 µM (inactive). Further, the GI50 in the assay with OVCAR-5 was 20.8 µM (inactive); in the assay with EKVX it was 15.9 µM (inactive); with MOLT-4, 11.8 µM (inactive); in the assay with OVCAR-3 it was 22.7 µM (inactive); in the assay with OVCAR-4, 39.5 µM (inactive); in the assay on 786-0, 31 µM (inactive). Further, the GI50 in the assay on RXF 393 is 19.6 µM (inactive); in the assay with CAKI-1 it was 27.8 µM (inactive); in the assay on HOP-92, 6.22 µM (inactive); with KM12, 14 µM (inactive); with HCT-15, 27.3 µM; in the assay with NCI-H226 it was 10.4 µM (inactive).

In the case of `CC1(C)CCC2=C(O1)c1ccccc1/C(=N/c1ccc([N+](=O)[O-])cc1)C2=O`, the GI50 is 14.9 µM (inactive) in the assay on MDA-N; 15.5 µM (inactive) with NCI-H460; 17.7 µM (inactive) with SK-OV-3; 16 µM (inactive) in the assay with Malme-3M; 16.4 µM (inactive) with EKVX; 13.8 µM (inactive) with MOLT-4. Also, the GI50 is 0.728 µM (active) with HL-60; 12.3 µM (inactive) with OVCAR-3; 15.1 µM (inactive) in the assay with OVCAR-4; 20 µM (inactive) in the assay with 786-0; 16.5 µM (inactive) in the assay on RXF 393; 16.7 µM (inactive) in the assay on CAKI-1. Besides, the GI50 was 39.1 µM (inactive) in the assay on HOP-92, 14.5 µM (inactive) with KM12, 31 µM in the assay with HCT-15 and 12.4 µM (inactive) in the assay with NCI-H226.
